{
  "source": "patent US9145412B2",
  "about": "“Selective HDAC1 and HDAC2 inhibitors” (Acetylon Pharmaceuticals, Inc., priority 2012, dated 2015)",
  "key": {"[1]": {"tested_on": "human CD34+ bone marrow cells", "experiment": "Cell viability / cytotoxicity in cultured CD34+ cells", "format": "cell-based", "settings": "1 μM, after 6 days of treatment", "excerpt": "(§1) To investigate whether HDAC1 or HDAC2 was the preferred therapeutic target, two compounds were used."}, "HDAC1": {"biological_target": "HDAC1 (Homo sapiens (Human), UniProt Q13547)", "sequence (Q13547 whole entry)": "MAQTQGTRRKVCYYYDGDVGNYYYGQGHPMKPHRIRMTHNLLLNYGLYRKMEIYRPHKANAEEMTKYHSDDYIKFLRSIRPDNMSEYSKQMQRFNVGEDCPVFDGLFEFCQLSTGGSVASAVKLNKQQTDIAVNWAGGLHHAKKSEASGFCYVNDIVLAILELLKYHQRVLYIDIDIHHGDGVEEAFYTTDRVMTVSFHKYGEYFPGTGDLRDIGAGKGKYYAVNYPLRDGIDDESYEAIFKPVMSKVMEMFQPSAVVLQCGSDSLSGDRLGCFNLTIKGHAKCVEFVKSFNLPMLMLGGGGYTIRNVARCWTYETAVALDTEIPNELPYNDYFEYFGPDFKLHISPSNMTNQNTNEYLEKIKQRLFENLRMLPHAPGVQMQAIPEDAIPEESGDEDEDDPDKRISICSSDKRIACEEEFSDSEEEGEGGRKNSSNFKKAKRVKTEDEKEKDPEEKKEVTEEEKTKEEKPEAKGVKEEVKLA", "experiment": "HDAC enzyme assay", "format": "biochemical", "settings": "enzyme pre-incubated with compound for 24 hours", "method": "(§2) Compounds for testing were diluted in DMSO to 50 fold the final concentration and a ten point three fold dilution series was made. The compounds were diluted in assay buffer (50 mM HEPES, pH 7.4, 100 mM KCl, 0.001% Tween-20, 0.05% BSA, 20 μM tris(2-carboxyethyl)phosphine) to 6 fold their final concentration. The HDAC enzymes (purchased from BPS Biosciences) were diluted to 1.5 fold their final concentration in assay buffer and pre-incubated with the compounds for 24 hours prior to addition of the substrate.\n(§3) The substrate tripeptide substrate 3 (synthesized in house) for each enzyme was equal to the Km as determined by a substrate titration curve. The substrates were diluted in assay buffer at 6× their final concentration with 0.3 μM sequencing grade trypsin (Sigma). The substrate/trypsin mix was added to the enzyme/compound mix, the plate was shaken for 60 seconds and placed into a Spectramax M5 microtiter plate reader. The development of fluorescence was monitored for […] and the linear rate of the reaction was calculated. The IC50 was determined using Graph Pad Prism by a four parameter curve fit. The IC50 values obtained for the compounds of this invention are found in Table 1."}, "HDAC2": {"biological_target": "HDAC2 (Homo sapiens (Human), UniProt Q92769)", "sequence (Q92769 whole entry)": "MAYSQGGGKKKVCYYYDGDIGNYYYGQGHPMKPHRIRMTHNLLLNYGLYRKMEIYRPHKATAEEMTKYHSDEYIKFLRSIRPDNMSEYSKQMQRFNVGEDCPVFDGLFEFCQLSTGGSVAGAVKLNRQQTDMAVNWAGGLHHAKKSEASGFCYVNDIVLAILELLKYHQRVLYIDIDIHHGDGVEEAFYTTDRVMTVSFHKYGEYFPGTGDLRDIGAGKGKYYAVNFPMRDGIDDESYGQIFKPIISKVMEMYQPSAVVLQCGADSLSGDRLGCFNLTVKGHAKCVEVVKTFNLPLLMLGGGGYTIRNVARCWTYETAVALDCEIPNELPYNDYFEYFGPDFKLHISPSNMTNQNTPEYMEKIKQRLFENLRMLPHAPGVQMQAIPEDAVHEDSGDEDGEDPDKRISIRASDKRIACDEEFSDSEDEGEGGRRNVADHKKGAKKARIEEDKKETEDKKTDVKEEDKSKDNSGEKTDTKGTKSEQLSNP", "experiment": "HDAC enzyme assay", "format": "biochemical", "settings": "enzyme pre-incubated with compound for 24 hours", "method": "as §2, §3"}, "HDAC3": {"biological_target": "HDAC3 (Homo sapiens (Human), UniProt O15379)", "sequence (O15379 whole entry)": "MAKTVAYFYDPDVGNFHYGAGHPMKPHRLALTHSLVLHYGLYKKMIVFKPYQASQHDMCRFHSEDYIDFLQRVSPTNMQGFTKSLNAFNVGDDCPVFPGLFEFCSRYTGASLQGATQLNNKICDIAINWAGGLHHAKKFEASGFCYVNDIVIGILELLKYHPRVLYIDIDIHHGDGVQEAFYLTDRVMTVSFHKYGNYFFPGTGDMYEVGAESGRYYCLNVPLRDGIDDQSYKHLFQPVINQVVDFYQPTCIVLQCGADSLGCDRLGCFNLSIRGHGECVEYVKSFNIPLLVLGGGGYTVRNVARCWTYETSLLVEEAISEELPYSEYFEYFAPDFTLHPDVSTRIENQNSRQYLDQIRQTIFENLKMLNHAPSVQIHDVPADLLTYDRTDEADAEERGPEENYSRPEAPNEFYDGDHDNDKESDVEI", "sequence (Q9Y618 395-489 partner)": "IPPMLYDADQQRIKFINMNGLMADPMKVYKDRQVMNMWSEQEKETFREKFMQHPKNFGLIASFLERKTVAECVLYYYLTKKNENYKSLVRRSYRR", "experiment": "HDAC enzyme assay", "format": "biochemical", "settings": "enzyme pre-incubated with compound for 24 hours", "method": "as §2, §3"}, "[2]": {"tested_on": "human CD34+ bone marrow cells", "experiment": "Fetal globin (HbG) induction in cultured CD34+ cells undergoing erythroid differentiation", "format": "cell-based", "settings": "for increase in the percentage of HbG relative to other beta-like globin transcripts: 1 μM, treatment of cells for 6 days", "method": "CD34+ cells isolated from human bone marrow were cultured in vitro using two distinct sets of culture conditions. Culture system 1 (CS1), described by Xu J et al. (Science 2011 Nov. 18; 334(6058):993-6), consists of a 7 day expansion phase in media that supports hematopoietic progenitor cells followed by a differentiation phase of 4 to 8 days in media that induces development of erythroid lineage cells. Culture system 2 (CS2), described by Bradner J E (Proc Natl Acad Sci USA. 2010 Jul. 13; 107(28):12617-22), consists of a 7 day expansion phase in media that supports differentiation of cells towards the erythroid lineage followed by a differentiation phase for 3 days where erythroid cell development continues. After 3 to 5 days in differentiation media CS1 cells are primarily early erythroblasts (EB), while CS2 cells are primarily late EB. mRNA levels were determine by quantitative real time PCR using primer/probe sets designed to adult major β-globin (β), adult minor β-globin (δ), fetal β-like globin (HbG, γ), and embryonic β-like globin (ε). Protein levels were determined by flow cytometry using fluorescent antibodies against fetal hemoglobin (HbF) or adult hemoglobin (HbA). […] Globin mRNA levels were determined in cells at day 0, 3, 5, and 8 of differentiation. […] Globin mRNA levels were determined at day 3 of differentiation. […] Hemoglobin protein levels within each cell were determined at day 5 of differentiation. […] After 2 days, media was exchanged and cells were differentiated for an additional 2 days in the absence of compound. Hemoglobin protein levels within each cell were determined at day 4 of differentiation.\nas §1"}, "Bcl11A mRNA": {"tested_on": "Bcl11A mRNA", "experiment": "GeneChip and quantitative real-time PCR time course", "format": "cell-based", "excerpt": "(§4) ChIP-seq data, both by itself and in combination with gene expression data, will provide further insight into the mechanism through which HDAC1/2 regulates HbF synthesis."}, "Sox6 mRNA": {"tested_on": "Sox6 mRNA", "experiment": "GeneChip and quantitative real-time PCR time course", "format": "cell-based", "excerpt": "as §4"}, "Klf2 mRNA": {"tested_on": "Klf2 mRNA", "experiment": "GeneChip and quantitative real-time PCR time course", "format": "cell-based", "excerpt": "as §4"}, "Gata2 mRNA": {"tested_on": "Gata2 mRNA", "experiment": "GeneChip and quantitative real-time PCR time course", "format": "cell-based", "excerpt": "as §4"}, "[3]": {"tested_on": "human CD34+ bone marrow cells", "experiment": "Erythroid differentiation markers CD71 and glycophorinA", "format": "cell-based", "settings": "1 μM, 6 days", "excerpt": "as §1"}, "[4]": {"tested_on": "early erythroblasts (CD71+, GlyA−)", "experiment": "Gene expression profiling, Affymetrix PrimeView GeneChips", "format": "cell-based", "settings": "n=3 vs vehicle", "excerpt": "(§5) Significant enrichment in other gene sets involving targets linked to HbG regulation, including lysine-specific demethylase 1 (LSD1) (Shi L, Nature Medicine, 2012) were identified."}, "[5]": {"tested_on": "late erythroblasts (CD71+, GlyA+)", "experiment": "Gene expression profiling, Affymetrix PrimeView GeneChips", "format": "cell-based", "excerpt": "as §5"}},
  "data": [
    {"smiles": "Nc1ccc(-c2ccncc2)cc1NC(=O)c1ccc2c(c1)cc(C1CC1)n2CCN1CCOCC1", "note": "[Compound 004, N-(2-amino-5-(pyridin-4-yl)phenyl)-2-cyclopropyl-1-(2-morpholinoethyl)-1H-indole-5-carboxamide]", "values": [
      {"measurement": "decrease in cell viability", "setting": "[1]", "result": 1.2, "unit": "fold"},
      {"measurement": "IC50", "setting": "HDAC1", "result": 27, "unit": "nM"},
      {"measurement": "IC50", "setting": "HDAC2", "result": 24, "unit": "nM"},
      {"measurement": "IC50", "setting": "HDAC3", "result": 247, "unit": "nM"},
      {"measurement": "increase in the percentage of HbG relative to other beta-like globin transcripts", "setting": "[2]", "result": 3, "unit": "fold"}
    ]},
    {"smiles": "Nc1ccc(-c2cccs2)cc1NC(=O)c1ccc2nc(N3CCNCC3)ccc2c1", "note": "[Compound 001, N-(2-amino-5-(thiophen-2-yl)phenyl)-2-(piperazin-1-yl)quinoline-6-carboxamide]", "values": [
      {"measurement": "decrease in Bcl11A mRNA", "setting": "Bcl11A mRNA", "result": 2, "unit": "fold"},
      {"measurement": "decrease in Sox6 mRNA", "setting": "Sox6 mRNA", "result": 10, "unit": "fold"},
      {"measurement": "increase in Klf2 mRNA", "setting": "Klf2 mRNA", "result": 2, "unit": "fold"},
      {"measurement": "increase in Gata2 mRNA", "setting": "Gata2 mRNA", "result": 8, "unit": "fold"},
      {"measurement": "decrease in cell viability", "setting": "[1]", "result": "approximately 3 fold"},
      {"measurement": "cells positive for the erythroid differentiation markers CD71 and glycophorinA", "setting": "[3]", "result": "reduction"},
      {"measurement": "IC50", "setting": "HDAC1", "result": 4, "unit": "nM"},
      {"measurement": "IC50", "setting": "HDAC2", "result": 15, "unit": "nM"},
      {"measurement": "IC50", "setting": "HDAC3", "result": 114, "unit": "nM"},
      {"measurement": "increase in the percentage of HbG relative to other beta-like globin transcripts", "setting": "[2]", "result": 3, "unit": "fold"},
      {"measurement": "HbG induction in cells positive for both CD71 and GlyA", "setting": "[2]; follow-up experiments, CD71+ GlyA+ cells", "result": "unable to induce HbG"},
      {"measurement": "probe sets down regulated", "setting": "[4]", "result": 681},
      {"measurement": "probe sets up regulated", "setting": "[4]", "result": 1294},
      {"measurement": "total probe set changes", "setting": "[5]", "result": 255}
    ]}
  ]
}
